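Interpolation was linear, between the two tested concentrations surrounding the appropriate level; five concentrations were tested over 48 hours in 96-well plates. TGI marks complete inhibition of growth.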
Tests used:
Test in all cases: NCI tumour cell line growth inhibition, 48 h
786-0 renal = tested on: 786-0 renal
A549 NSCLC = tested on: A549 NSCLC
ACHN renal = tested on: ACHN renal
BT-549 breast = tested on: BT-549 breast
CAKI-1 renal = tested on: CAKI-1 renal
CCRF-CEM leukemia = tested on: CCRF-CEM leukemia
COLO 205 colon = tested on: COLO 205 colon
DU-145 prostate = tested on: DU-145 prostate
EKVX NSCLC = tested on: EKVX NSCLC
HCT-116 colon = tested on: HCT-116 colon
HOP-62 NSCLC = tested on: HOP-62 NSCLC
HOP-92 NSCLC = tested on: HOP-92 NSCLC
HS 578T breast = tested on: HS 578T breast
HT29 colon = tested on: HT29 colon
IGROV1 ovarian = tested on: IGROV1 ovarian
KM12 colon = tested on: KM12 colon
LOX IMVI melanoma = tested on: LOX IMVI melanoma
MALME-3M melanoma = tested on: MALME-3M melanoma
MCF7 breast = tested on: MCF7 breast
MDA-MB-435 = tested on: MDA-MB-435
MDA-N = tested on: MDA-N
MOLT-4 leukemia = tested on: MOLT-4 leukemia
NCI-H23 lung = tested on: NCI-H23 lung
NCI-H460 lung = tested on: NCI-H460 lung
NCI-H522 lung = tested on: NCI-H522 lung
NCI/ADR-RES ovarian = tested on: NCI/ADR-RES ovarian
OVCAR-4 ovarian = tested on: OVCAR-4 ovarian
OVCAR-5 ovarian = tested on: OVCAR-5 ovarian
OVCAR-8 ovarian = tested on: OVCAR-8 ovarian
PC-3 prostate = tested on: PC-3 prostate
RPMI-8226 leukemia = tested on: RPMI-8226 leukemia
RXF 393 renal = tested on: RXF 393 renal
SF-268 CNS = tested on: SF-268 CNS
SF-295 CNS = tested on: SF-295 CNS
SK-MEL-28 melanoma = tested on: SK-MEL-28 melanoma
SK-MEL-5 melanoma = tested on: SK-MEL-5 melanoma
SK-OV-3 ovarian = tested on: SK-OV-3 ovarian
SN12C renal = tested on: SN12C renal
SNB-19 CNS = tested on: SNB-19 CNS
SNB-75 CNS = tested on: SNB-75 CNS
SR leukemia = tested on: SR leukemia
SW-620 colon = tested on: SW-620 colon
T-47D breast = tested on: T-47D breast
TK-10 renal = tested on: TK-10 renal
U251 CNS = tested on: U251 CNS
UACC-257 melanoma = tested on: UACC-257 melanoma
UACC-62 melanoma = tested on: UACC-62 melanoma
UO-31 renal = tested on: UO-31 renal
A498 renal = tested on: A498 renal
HCC-2998 colon = tested on: HCC-2998 colon
HCT-15 colon = tested on: HCT-15 colon
HL-60(TB) leukemia = tested on: HL-60(TB) leukemia
K-562 leukemia = tested on: K-562 leukemia
M14 melanoma = tested on: M14 melanoma
MDA-MB-231 breast = tested on: MDA-MB-231 breast
NCI-H226 lung = tested on: NCI-H226 lung
OVCAR-3 ovarian = tested on: OVCAR-3 ovarian
SF-539 CNS = tested on: SF-539 CNS
SK-MEL-2 melanoma = tested on: SK-MEL-2 melanoma

Measured: TGI

CCCCCCCCCCCC(=O)Oc1c(Cl)cc(Cl)c(OC(=O)C(=O)Oc2c(Cl)cc(Cl)c(OC(=O)CCCCCCCCCCC)c2Cl)c1Cl
> 100 µM: 786-0 renal | A549 NSCLC | ACHN renal | BT-549 breast | CAKI-1 renal | CCRF-CEM leukemia | COLO 205 colon | DU-145 prostate | EKVX NSCLC | HCT-116 colon | HOP-62 NSCLC | HOP-92 NSCLC | HS 578T breast | HT29 colon | IGROV1 ovarian | KM12 colon | LOX IMVI melanoma | MALME-3M melanoma | MCF7 breast | MDA-MB-435 | MDA-N | MOLT-4 leukemia | NCI-H23 lung | NCI-H460 lung | NCI-H522 lung | NCI/ADR-RES ovarian | OVCAR-4 ovarian | OVCAR-5 ovarian | OVCAR-8 ovarian | PC-3 prostate | RPMI-8226 leukemia | RXF 393 renal | SF-268 CNS | SF-295 CNS | SK-MEL-28 melanoma | SK-MEL-5 melanoma | SK-OV-3 ovarian | SN12C renal | SNB-19 CNS | SNB-75 CNS | SR leukemia | SW-620 colon | T-47D breast | TK-10 renal | U251 CNS | UACC-257 melanoma | UACC-62 melanoma | UO-31 renal

COc1ccc(OCc2nc3cc(C(F)(F)F)ccc3nc2-c2ccccc2)cc1
> 100 µM: 786-0 renal | A498 renal | A549 NSCLC | ACHN renal | BT-549 breast | CAKI-1 renal | CCRF-CEM leukemia | COLO 205 colon | DU-145 prostate | EKVX NSCLC | HCC-2998 colon | HCT-116 colon | HCT-15 colon | HL-60(TB) leukemia | HOP-62 NSCLC | HOP-92 NSCLC | HS 578T breast | HT29 colon | K-562 leukemia | KM12 colon | LOX IMVI melanoma | M14 melanoma | MALME-3M melanoma | MCF7 breast | MDA-MB-231 breast | MDA-MB-435 | MDA-N | MOLT-4 leukemia | NCI-H226 lung | NCI-H23 lung | NCI-H460 lung | NCI/ADR-RES ovarian | OVCAR-3 ovarian | OVCAR-4 ovarian | OVCAR-5 ovarian | OVCAR-8 ovarian | PC-3 prostate | RPMI-8226 leukemia | RXF 393 renal | SF-268 CNS | SF-295 CNS | SF-539 CNS | SK-MEL-2 melanoma | SK-MEL-28 melanoma | SK-MEL-5 melanoma | SK-OV-3 ovarian | SN12C renal | SNB-19 CNS | SNB-75 CNS | SW-620 colon | T-47D breast | TK-10 renal | U251 CNS | UACC-257 melanoma | UACC-62 melanoma | UO-31 renal
